Experimental findings from the supplement of paper PMC10307832 are described below.

What all share (assay): relative viability (nuclei count vs DMSO), 5 days (fraction); higher = more cells survive
Compound in the assay “Vemurafenib + Trametinib”: CCCS(=O)(=O)Nc1ccc(F)c(C(=O)c2c[nH]c3ncc(-c4ccc(Cl)cc4)cc23)c1F [Vemurafenib] + CC(=O)Nc1cccc(-n2c(=O)n(C3CC3)c(=O)c3c(Nc4ccc(I)cc4F)n(C)c(=O)c(C)c32)c1 [Trametinib] (partner 0.02 µM)
The method in brief: (§1)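 Lung cancer cell lines in 1536-well plates got either a single drug or a fixed anchor-drug dose together with five library-drug doses (not always all listed) in √10 steps, by pin tool, on the day after seeding. Nuclei were counted after 5 days, and relative viability is the treated-to-vehicle ratio of nuclei counts. Values are medians of duplicate plates.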

Compound in the assay “Alpelisib + Foretinib”: Cc1nc(NC(=O)N2CCC[C@H]2C(N)=O)sc1-c1ccnc(C(C)(C)C(F)(F)F)c1 [Alpelisib] + COc1cc2c(Oc3ccc(NC(=O)C4(C(=O)Nc5ccc(F)cc5)CC4)cc3F)ccnc2cc1OCCCN1CCOCC1 [Foretinib] (partner 0.25 µM)
The method in brief:
as §1

Compound in the assay “Alpelisib + Tozasertib”: Cc1nc(NC(=O)N2CCC[C@H]2C(N)=O)sc1-c1ccnc(C(C)(C)C(F)(F)F)c1 [Alpelisib] + Cc1cc(Nc2cc(N3CCN(C)CC3)nc(Sc3ccc(NC(=O)C4CC4)cc3)n2)n[nH]1 [Tozasertib] (partner 0.1 µM)
Summed up:
as §1

Compound in the assay “OSI-027 + Lapatinib”: COc1cccc2cc(-c3nc([C@H]4CC[C@H](C(=O)O)CC4)n4ncnc(N)c34)[nH]c12 [OSI-027] + CS(=O)(=O)CCNCc1ccc(-c2ccc3ncnc(Nc4ccc(OCc5cccc(F)c5)c(Cl)c4)c3c2)o1 [Lapatinib] (partner 2 µM)
The method in brief:
as §1

As for UMC-11, the relative viability with Vemurafenib + Trametinib (first compound 0.03162 µM) is 0.657; with Vemurafenib + Trametinib (first compound 0.1 µM), 0.756; in the assay with Vemurafenib + Trametinib (first compound 0.3162 µM), 0.475; with Vemurafenib + Trametinib (first compound 1 µM), 0.355; in the assay with Alpelisib + Foretinib (first compound 0.04 µM), 1.01; with Alpelisib + Foretinib (first compound 0.1265 µM), 1.05. In addition, the relative viability stood at 1.12 with Alpelisib + Foretinib (first compound 0.4 µM); 0.839 with Alpelisib + Foretinib (first compound 1.265 µM); 0.875 in the assay with Alpelisib + Foretinib (first compound 4 µM); 0.188 with Alpelisib + Tozasertib (first compound 0.04 µM); 0.198 with Alpelisib + Tozasertib (first compound 0.1265 µM); 0.213 with Alpelisib + Tozasertib (first compound 0.4 µM). For the same cell line, the relative viability with Alpelisib + Tozasertib (first compound 1.265 µM) was 0.219; with Alpelisib + Tozasertib (first compound 4 µM), 0.186; with OSI-027 + Lapatinib (first compound 0.01 µM), 0.934; with OSI-027 + Lapatinib (first compound 0.03162 µM), 0.939; in the assay with OSI-027 + Lapatinib (first compound 0.1 µM), 0.805; with OSI-027 + Lapatinib (first compound 0.3162 µM), 0.693. In the assay with OSI-027 + Lapatinib (first compound 1 µM), the relative viability is 0.506.
